Results reported in PubChem BioAssay AID1918996 (Molecular Pharmacology Branch, DTP, NCI, 2023).
Values joined by “and” are separate entries in the source; they are usually repeats but may differ in a detail not shown here. Identical values can stand only once.

Test system: 349418-098-R-PDC complex spheroid growth
Assay: Anticancer human tumor 349418-098-R-PDC patient-derived lung adenocarcinoma cell line growth inhibition [AhR]
Conditions: for viability, T/C: stronger effect = lower value
Outline: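 Spheroids combined tumor cells with HUVEC endothelial cells and human MSCs as stroma. AhR antagonists were paired with standard or investigational drugs, each dosed in half-log steps down from near clinical Cmax, or from 10 microM where Cmax was unknown.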

[1] = curve of first compound, second compound 0.1 µM
[2] = curve of first compound, second compound 0.316 µM
[3] = curve of first compound, second compound 1 µM
[4] = curve of first compound, second compound 3.16 µM
[5] = curve of first compound, second compound 10 µM
[6] = second compound 0.1 µM, first compound 0.0316 µM
[7] = second compound 0.1 µM, first compound 0.1 µM
[8] = second compound 0.1 µM, first compound 0.316 µM
[9] = second compound 0.1 µM, first compound 1 µM
[10] = second compound 0.1 µM, first compound 3.16 µM
[11] = second compound 0.1 µM, first compound 10 µM
[12] = second compound 0.316 µM, first compound 0.0316 µM
[13] = second compound 0.316 µM, first compound 0.1 µM
[14] = second compound 0.316 µM, first compound 0.316 µM
[15] = second compound 0.316 µM, first compound 1 µM
[16] = second compound 0.316 µM, first compound 3.16 µM
[17] = second compound 0.316 µM, first compound 10 µM
[18] = second compound 1 µM, first compound 0.0316 µM
[19] = second compound 1 µM, first compound 0.1 µM
[20] = second compound 1 µM, first compound 0.316 µM
[21] = second compound 1 µM, first compound 1 µM
[22] = second compound 1 µM, first compound 3.16 µM
[23] = second compound 1 µM, first compound 10 µM
[24] = second compound 3.16 µM, first compound 0.0316 µM
[25] = second compound 3.16 µM, first compound 0.1 µM
[26] = second compound 3.16 µM, first compound 0.316 µM
[27] = second compound 3.16 µM, first compound 1 µM
[28] = second compound 3.16 µM, first compound 3.16 µM
[29] = second compound 3.16 µM, first compound 10 µM
[30] = second compound 10 µM, first compound 0.0316 µM
[31] = second compound 10 µM, first compound 0.1 µM
[32] = second compound 10 µM, first compound 0.316 µM
[33] = second compound 10 µM, first compound 1 µM
[34] = second compound 10 µM, first compound 3.16 µM
[35] = second compound 10 µM, first compound 10 µM
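Also: spheroids exposed to agents for seven days before luminescence viability read.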
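For viability, T/C in this document: spheroids also contain HUVEC endothelial cells and human MSC stroma.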

With `Nc1ccn(C2OC(CO)C(O)C2(F)F)c(=O)n1` (centres undefined) + Cc1ccccc1N=Nc1ccc(NC(=O)c2ccnn2C)c(C)c1 the IC50 [1] was less than 31.6 nM, the IC50 [2] was less than 31.6 nM and the IC50 [3] was less than 31.6 nM. For the same molecule, the IC50 [4] was less than 31.6 nM, the IC50 [5] was less than 31.6 nM and the viability, T/C [6] was 15.1%. The viability, T/C [7] was 14.6%, the viability, T/C [8] was 13.6% and the viability, T/C [9] was 12.1%. The viability, T/C [10] was 11.3%, the viability, T/C [11] was 8.74% and the viability, T/C [12] was 15.9%. For the same molecule, the viability, T/C [13] was 13.5%, the viability, T/C [14] was 14.6% and the viability, T/C [15] was 13.1%. For the same molecule, the viability, T/C [16] was 11.2%, the viability, T/C [17] was 9.73% and the viability, T/C [18] was 15.7%. It also gave a viability, T/C [19] of 14.8%, a viability, T/C [20] of 15.3% and a viability, T/C [21] of 11.7%. It also gave a viability, T/C [22] of 14.3%, a viability, T/C [23] of 11.4% and a viability, T/C [24] of 14.9%. For the same molecule, the viability, T/C [25] was 16.4%, the viability, T/C [26] was 13.1% and the viability, T/C [27] was 12.7%. The viability, T/C [28] was 13%, the viability, T/C [29] was 10.1% and the viability, T/C [30] was 17.9%. For the same molecule, the viability, T/C [31] was 17.4%, the viability, T/C [32] was 16.7% and the viability, T/C [33] was 14.1%. It also gave a viability, T/C [34] of 13.4% and a viability, T/C [35] of 12.2%.

With `O=C(C=Cc1cccc(S(=O)(=O)Nc2ccccc2)c1)NO` + Cc1cncc(-c2nc(NCCc3c[nH]c4ccccc34)c3ncn(C(C)C)c3n2)c1 the IC50 [1] was 682 nM, the IC50 [2] was 524 nM and the IC50 [3] was 598 nM. The IC50 [4] was less than 31.6 nM, the IC50 [5] was less than 31.6 nM and the viability, T/C [6] was 90.6%. It also gave a viability, T/C [7] of 79.1%, a viability, T/C [8] of 67.8% and a viability, T/C [9] of 43.2%. For the same molecule, the viability, T/C [10] was 13.2%, the viability, T/C [11] was 1.82% and the viability, T/C [12] was 85.2%. It also gave a viability, T/C [13] of 68.9%, a viability, T/C [14] of 59.3% and a viability, T/C [15] of 43.5%. The viability, T/C [16] was 11.3%, the viability, T/C [17] was 1.83% and the viability, T/C [18] was 76.4%. For the same molecule, the viability, T/C [19] was 75.8%, the viability, T/C [20] was 61.1% and the viability, T/C [21] was 41.3%. For the same molecule, the viability, T/C [22] was 10.3%, the viability, T/C [23] was 1.94% and the viability, T/C [24] was 30.8%. The viability, T/C [25] was 34.8%, the viability, T/C [26] was 37.9% and the viability, T/C [27] was 22.7%. It also gave a viability, T/C [28] of 7.91%, a viability, T/C [29] of 1.33% and a viability, T/C [30] of 3.17%. For the same molecule, the viability, T/C [31] was 3.68%, the viability, T/C [32] was 2.97% and the viability, T/C [33] was 1.98%. For the same molecule, the viability, T/C [34] was 1.53% and the viability, T/C [35] was 0.75%.

In the case of `Nc1ccn(C2OC(CO)C(O)C2(F)F)c(=O)n1` (centres undefined), the viability, T/C (compound 0.0316 µM) is reported as 4.83% and 12.5% and 13.7%, the viability, T/C (compound 0.1 µM) is reported as 4.18% and 11.3% and 11.8% and the viability, T/C (compound 0.316 µM) is reported as 4.06% and 10.1% and 12.9%. For the same molecule, the viability, T/C (compound 1 µM) was 5.57% and 9.29% and 10.5%, the viability, T/C (compound 3.16 µM) was 4.07% and 9.38% and 10.2% and the viability, T/C (compound 10 µM) was 3.24% and 7.8% and 8.55%. For the same molecule, the IC50 (curve of compound) was less than 31.6 nM.

In the case of `COc1cc(C2c3cc4c(cc3C(OC3OC5COC(C)OC5C(O)C3O)C3COC(=O)C23)OCO4)cc(OC)c1O` (centres undefined), the viability, T/C (compound 0.0316 µM) is reported as 99.4% and 112% and 89.4%, the viability, T/C (compound 0.1 µM) is reported as 99.9% and 91.1% and 91.7% and the viability, T/C (compound 0.316 µM) is reported as 64.6% and 71% and 38.2%. The viability, T/C (compound 1 µM) was 22.5% and 31.2% and 21.6%, the viability, T/C (compound 3.16 µM) was 11.2% and 15.4% and 15.3% and the viability, T/C (compound 10 µM) was 5.4% and 11.7% and 12.5%. For the same molecule, the IC50 (curve of compound) was 479 nM and 566 nM and 244 nM.
